Where two headings read alike, the source gives them in different places.
Key:
Format in all cases: cell-based
E. coli EC86 = experiment: Broth microtiter dilution MIC, EC86; settings: E. coli EC86, CTX-M-15 (A), CMY-4 (C), OXA-181 (D)
Experimental: (§1) The in vitro activity of cyclic boronate 2 was assessed using nine clinical isolates carrying multiple β-lactamases (Table 3). The isolates selected included Enterobacteriaceae (E. coli ST 131, Klebsiella pneumoniae ST 258, and Providencia stuartii) producing class A ESBLs (CTX-M-15, CTX-M-27, SHV-5, and VEB-1), serine carbapenemase (KPC-2) and metallo-carbapenemases (VIM-1 and VIM-2), plasmid-mediated AmpC (CMY-2), and/or carbapenem-hydrolyzing OXA-48-like oxacillinases (OXA-181 and OXA-232) in various combinations. The activity against carbapenemase-producing strains of Pseudomonas aeruginosa (VIM-2) and Acinetobacter baumannii (OXA-23) was also investigated. All isolates have previously undergone extensive phenotypic and genotypic characterization ([60]).
(§2) MICs were determined using commercial Sensititre GN4F panels (Thermo Scientific, UK; lot B55051) and Mueller-Hinton II cation-adjusted broth (Oxoid, UK), with and without the addition of cyclic boronate 2 at a fixed concentration of 10 μg/ml. Plates were incubated at 37°C for 18 h and MICs read by eye following the addition of alamarBlue reagent (Trek Diagnostics).

A. baumannii AB14 = experiment: Broth microtiter dilution MIC, AB14; settings: Acinetobacter baumannii, OXA-23 (D), OXA-51 (D), read-out: MIC (mg/liter) for β-lactam
Experimental: as §1, §2

E. coli EC113, ST 131 = experiment: Broth microtiter dilution MIC, EC113; settings: Escherichia coli, CTX-M-27 (A), read-out: MIC (mg/liter) for β-lactam
Experimental: as §1, §2

P. stuartii PS71 = experiment: Broth microtiter dilution MIC, PS71; settings: Providencia stuartii, TEM-1 (A), SHV-5 (A), VEB-1 (A), VIM-1 (B), read-out: MIC (mg/liter) for β-lactam
Experimental: as §1, §2

K. pneumoniae KP41 = experiment: Broth microtiter dilution MIC, KP41; settings: Klebsiella pneumoniae, TEM-1, SHV-1, SHV-5, SHV-11, CTX-M-15 (A), OXA-232 (D), read-out: MIC (mg/liter) for β-lactam
Experimental: as §1, §2

[1] = test system: P. aeruginosa PA12, ST 111; experiment: Broth microtiter dilution MIC, PA12; settings: Pseudomonas aeruginosa, VIM-2 (B), read-out: MIC (mg/liter) for β-lactam
Experimental: as §1, §2

K. pneumoniae (KP41) = test system: K. pneumoniae (KP41)
Experimental: (§3) Combination discs (Oxoid) were prepared with a fixed ratio of 2:1 between the β-lactam (μg) and cyclic boronate 2. Zones of inhibition around combined and unsupplemented discs were compared following overnight incubation on MH II plates.

K. pneumoniae (KP15) = test system: K. pneumoniae (KP15)
Experimental: as §3

K. pneumoniae (KP58) = test system: K. pneumoniae (KP58)
Experimental: as §3

K. pneumoniae KP58 = experiment: Broth microtiter dilution MIC, KP58; settings: Klebsiella pneumoniae, SHV-11 (A), VIM-4 (B), read-out: MIC (mg/liter) for β-lactam
Experimental: as §1, §2

E. coli EC114, ST 131 = experiment: Broth microtiter dilution MIC, EC114; settings: Escherichia coli, TEM-1 (A), CTX-M-15 (A), OXA-1 (D), read-out: MIC (mg/liter) for β-lactam
Experimental: as §1, §2

K. pneumoniae KP15 = experiment: Broth microtiter dilution MIC, KP15; settings: Klebsiella pneumoniae, TEM-1 (A), SHV-11 (A), KPC-2 (A), read-out: MIC (mg/liter) for β-lactam
Experimental: as §1, §2

E. coli EC107, ST 131 = experiment: Broth microtiter dilution MIC, EC107; settings: Escherichia coli, CTX-M-15 (A), OXA-1 (D), read-out: MIC (mg/liter) for β-lactam
Experimental: as §1, §2

[2] = without cyclic boronate 2 supplementation
[3] = with cyclic boronate 2 (10 mg/liter) supplementation

CCN1CCN(C(=O)N[C@@H](C(=O)N[C@@H]2C(=O)N3[C@@H]2SC(C)(C)[C@@H]3C(=O)O)c2ccccc2)C(=O)C1=O [PIP, piperacillin]
MIC (mg/liter) for β-lactam (E. coli EC86; [2]): >64 mg/L
MIC (E. coli EC86; Escherichia coli, with cyclic boronate 2 (10 mg/liter) supplementation, read-out: MIC (mg/liter) for β-lactam): > 64 mg/L
MIC (A. baumannii AB14; [3]): > 64 mg/L
MIC (A. baumannii AB14; [2]): > 64 mg/L
MIC (E. coli EC113, ST 131; [3]): ≤ 16 mg/L
MIC (E. coli EC113, ST 131; [2]): > 64 mg/L
MIC (P. stuartii PS71; [3]): > 64 mg/L
MIC (P. stuartii PS71; [2]): > 64 mg/L
MIC (K. pneumoniae KP41; [3]): > 64 mg/L
MIC (K. pneumoniae KP41; [2]): > 64 mg/L
MIC [1, 3]: 64 mg/L
MIC [1, 2]: > 64 mg/L
Synergy When Combined with (2): Fixed 2:1 µg Ratio (K. pneumoniae (KP41)): N
Synergy When Combined with (2): Fixed 2:1 µg Ratio (K. pneumoniae (KP15)): Y
Synergy When Combined with (2): Fixed 2:1 µg Ratio (K. pneumoniae (KP58)): Y
MIC (K. pneumoniae KP58; [3]): > 64 mg/L
MIC (K. pneumoniae KP58; [2]): > 64 mg/L
MIC (E. coli EC114, ST 131; [3]): > 64 mg/L
MIC (E. coli EC114, ST 131; [2]): > 64 mg/L
MIC (K. pneumoniae KP15; [3]): > 64 mg/L
MIC (K. pneumoniae KP15; [2]): > 64 mg/L
MIC (E. coli EC107, ST 131; [3]): > 64 mg/L
MIC (E. coli EC107, ST 131; [2]): > 64 mg/L

From publication PMC5365654, “Cyclic Boronates Inhibit All Classes of β-Lactamases” (Antimicrobial Agents and Chemotherapy, 2017)
